This note sets out measurements from patent US10329324B2 (viDA Therapeutics Inc., priority 2013, dated 2019).

One series addresses T1, human Granzyme B (hGzmB) (Homo sapiens, UniProt P10144).
T1 construct: purchased Froelich Lab, Northshore University Health Systems Research Institute, Evanston, Ill., USA
Put plainly: Human Granzyme B enzymatic inhibition assay (fluorogenic, kinetic). In kind it is biochemical. The conditions noted are these: activity codes, Table 7; read-out: IC50 Activity Range. In short, it runs like this: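 Human Granzyme B preincubated with compound for 30 min total (5 min shaking, 20 min bench, then reaction temperature). Fluorogenic substrate added and read kinetically, 25 cycles at 1-min intervals. Percent inhibition at one or two concentrations or 8–12-point 3-fold dose response from 20 uM, replicates, with IC50 by non-linear regression.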

Series [1] is described as follows: Kinetic solubility determination in PBS. The settings on record: PBS 1X pH 7.4, 2.0% DMSO, 24 hour incubation at ambient temperature; for solubility at 24 h: phosphate buffered saline (PBS 1×), 21 °C, pH 7.4, aqueous buffer, kinetic from dmso stock. In kind it is physicochemical. The method, then: Kinetic solubility buffer (phosphate buffered saline (PBS, 1×) at pH 7.4) was prepared from PBS (10×) solution, (Fisher Scientific, Pittsburgh, Pa., USA, 10×), by adding PBS (50 mL, 10×) to approximately water (450 mL HPLC grade). The volume of the solution was then adjusted to 500 mL for a total dilution factor of 1:10 and a final PBS concentration of 1×. The pH of the final solution (PBS (1×)) was measured and found to be 7.4.
A DMSO stock solution (typically 10 mM or greater) was used for each compound to be tested. A final DMSO concentration of 2.0% and maximum theoretical compound concentration of typically 200 μM (or greater) was achieved by diluting an aliquot (6 μl) of each stock with kinetic solubility buffer (294 μl, PBS (1×) at pH 7.4) using a liquid handling system (Hamilton STARlet, Hamilton Robotics, Inc., Reno, Nev., USA) and incubated directly in a solubility filter plate (Millipore, Billerica, Mass., USA). Following 24 hour incubation at ambient temperature (20.5-21.7° C.), each sample was vacuum filtered. The filtrate was injected into the chemiluminescent nitrogen detector for quantification (Automated Discovery Workstation, Analiza, Inc., Cleveland, Ohio, USA). Each result was reported both in μM and μg/mL units. Three separate on-board performance indicating standards were assayed in triplicate with each test compound to ensure test results were within the acceptable range.
The equimolar nitrogen response of the detector was calibrated using standards which spanned the dynamic range of the instrument from 0.08 to 4500 μg/ml nitrogen. Each filtrate was quantified with respect to this calibration curve. Each calculated solubility value was corrected for background nitrogen present in the DMSO, and buffer used to prepare each sample. All reported values for samples containing adjacent nitrogen atoms in a ring structure were corrected for the expected non-equimolar response. Each calculated solubility result assumed that each sample was free of nitrogen containing impurities and was stable under the assay conditions. Analyses were performed at Analiza Inc. (Cleveland, Ohio, USA) by published methods (Bhattachar, S. N., et al, J. Pharma. BioMed Anal. 41:152-7 2006).

[2] abbreviates: read-out: Solubility in aqueous PBS Buffer (1X, pH 7.4).
Where [3] appears, read: read-out: Solubility in aqueous PBS Buffer (1X, pH 7.4), ug/mL.

Where a name gives a salt, the structure may show the parent alone. Read-outs that look alike come from different tables or passages of the source.

T1 sequence (P10144 21-247): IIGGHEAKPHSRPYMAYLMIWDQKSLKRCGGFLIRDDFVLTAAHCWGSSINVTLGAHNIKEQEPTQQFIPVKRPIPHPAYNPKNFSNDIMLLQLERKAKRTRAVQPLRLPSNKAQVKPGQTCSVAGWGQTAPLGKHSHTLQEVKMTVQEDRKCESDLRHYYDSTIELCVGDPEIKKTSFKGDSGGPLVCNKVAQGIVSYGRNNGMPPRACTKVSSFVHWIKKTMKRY

Turning to `CC[C@H](C)[C@H](NC(=O)c1ccccc1C(=O)O)C(=O)NCC(=O)N1c2ccccc2C[C@H]1C(=O)NCc1nn[nH]n1` [Example A25, 2-{[(1S,2S)-2-Methyl-1-({2-Oxo-2-[(2S)-2-[(2H-1,2,3,4-Tetrazol-5-Ylmethyl)Carbamoyl]-2,3-Dihydro-1H-Indol-1-Yl]Ethyl}Carbamoyl)Butyl]Carbamoyl}Benzoic Acid], the IC50 (commonly the point on the concentration scale where inhibition reaches its midpoint) on human Granzyme B (hGzmB) is less than 100 nM. Moreover, the solubility at 24 h in series [1] (setting [2]) turned out to be 696 µM; in series [1] (setting [3]), 462 µg/mL.
In the case of `CC[C@H](C)[C@H](NC(=O)Cc1ccccc1)C(=O)NCC(=O)N1c2ccccc2C[C@H]1C(=O)NCc1c[nH]nn1` [Example B1, (2S)-1-{2-[(2S,3S)-3-Methyl-2-(2-Phenylacetamido)Pentanamido]Acetyl}-N-(1H-1,2,3-Triazol-4-Ylmethyl)-2,3-Dihydro-1H-Indole-2-Carboxamide], at human Granzyme B (hGzmB), the IC50 was in the range of 100 to 1000 nM. In addition, the solubility at 24 h in series [1] (setting [2]) turned out to be 97 µM; in series [1] (setting [3]), 62 µg/mL.
As to `CC[C@H](C)[C@H](NC(=O)CCC(=O)O)C(=O)NCC(=O)N1c2ccccc2C[C@H]1C(=O)NCc1c[nH]nn1` [Example A16, 3-{[(1S,2S)-2-Methyl-1-({2-Oxo-2-[(2S)-2-[(1H-1,2,3-Triazol-4-Ylmethyl)Carbamoyl]-2,3-Dihydro-1H-Indol-1-Yl]Ethyl}Carbamoyl)Butyl]Carbamoyl}Propanoic Acid], at human Granzyme B (hGzmB), the IC50 is less than 100 nM. Further, the solubility at 24 h in series [1] (setting [2]) was more than 750 µM; in series [1] (setting [3]), more than 385 µg/mL.
For `CC[C@H](C)[C@H](NC(=O)C1CC1C(=O)O)C(=O)NCC(=O)N1c2ccccc2C[C@H]1C(=O)NCc1nn[nH]n1` (single isomer, unassigned) [Example A26-2], the IC50 on human Granzyme B (hGzmB) was less than 100 nM. Besides, in series [1], the “Solubility in aqueous PBS Buffer (1X, pH 7.4), uM” value (shortened to “Solubility … uM”) turned out to be 685 uM and the “Solubility in aqueous PBS Buffer (1X, pH 7.4), ug/mL” value (“Solubility … ug/mL” for short) was 361 ug/mL.
For `CC[C@H](C)[C@H](NC(=O)C1CC=CCC1C(=O)O)C(=O)NCC(=O)N1c2ccccc2C[C@H]1C(=O)NCc1nn[nH]n1` (single isomer, unassigned) [Example A21-1], the IC50 at human Granzyme B (hGzmB) was less than 100 nM. The solubility at 24 h in series [1] (setting [2]) is more than 750 µM; in series [1] (setting [3]), more than 425 µg/mL.
With `CC[C@H](C)[C@H](NC(=O)CCCN)C(=O)NCC(=O)N1c2ccccc2C[C@H]1C(=O)NCc1nn[nH]n1` [Example A7, (2S)-1-{2-[(2S,3S)-2-(4-Aminobutanamido-3-Methylpentanamido]Acetyl}-N-(2H-1,2,3,4-Tetrazol-5-Ylmethyl)-2,3-Dihydro-1H-Indole-2-Carboxamide Hydrochloride], at human Granzyme B (hGzmB), the IC50 lay within 1000 to 10000 nM. The solubility at 24 h was found to be 124 µM in series [1] (setting [2]) and 67 µg/mL in series [1] (setting [3]).
For `CC[C@H](C)[C@H](NC(=O)Cc1ccccc1)C(=O)NCC(=O)N1c2cc(NC(=O)CCC(=O)O)ccc2C[C@H]1C(=O)NCc1nn[nH]n1` [Example C22, 3-{[(2S)-1-{2-[(2S,3S)-3-Methyl-2-(2-Phenylacetamido)Pentanamido]Acetyl}-2-[(2H-1,2,3,4-Tetrazol-5-Ylmethyl)Carbamoyl]-2,3-Dihydro-1H-Indol-6-Yl]Carbamoyl}Propanoic Acid], the IC50 at human Granzyme B (hGzmB) was less than 100 nM. Also, the figures for the solubility at 24 h in series [1] (setting [2]) and in series [1] (setting [3]) were more than 750 µM and more than 486 µg/mL, respectively.
As for `CC[C@H](C)[C@H](NC(=O)C1CCCCC1C(=O)O)C(=O)NCC(=O)N1c2ccccc2C[C@H]1C(=O)NCc1nn[nH]n1` (single isomer, unassigned) [Example A23-2], the IC50 at human Granzyme B (hGzmB) is less than 100 nM. Also, in series [1], the “Solubility … uM” value was 679 uM and the “Solubility … ug/mL” value was 386 ug/mL.
In the case of `CC[C@H](C)[C@H](NC(=O)C1CC=CCC1C(=O)O)C(=O)NCC(=O)N1c2ccccc2C[C@H]1C(=O)NCc1nn[nH]n1` (single isomer, unassigned) [Example A21-2], at human Granzyme B (hGzmB), the IC50 is less than 100 nM. For the same compound, in series [1], the “Solubility … uM” value was more than 750 uM and the “Solubility … ug/mL” value is given as more than 425 ug/mL.
Regarding `CC(C)[C@H](NC(=O)CCC(=O)O)C(=O)NCC(=O)N1c2ccccc2C[C@H]1C(=O)NCc1nn[nH]n1` [Example A46, 3-{[(1S)-2-Methyl-1-({2-Oxo-2-[(2S)-2-[(2H-1,2,3,4-Tetrazol-5-Ylmethyl)Carbamoyl]-2,3-Dihydro-1H-Indol-1-Yl]Ethyl}Carbamoyl)Propyl]Carbamoyl}Propanoic Acid], the IC50 on human Granzyme B (hGzmB) was less than 100 nM. In addition, the values for the solubility at 24 h in series [1] (setting [2]) and in series [1] (setting [3]) were more than 750 µM and more than 375 µg/mL, respectively.
Consider `CC[C@H](C)[C@H](NC(=O)C(C)CC(=O)O)C(=O)NCC(=O)N1c2ccccc2C[C@H]1C(=O)NCc1nn[nH]n1` (single isomer, unassigned) [Example A30-1], for which the IC50 on human Granzyme B (hGzmB) is less than 100 nM. The solubility at 24 h was more than 750 µM in series [1] (setting [2]) and more than 396 µg/mL in series [1] (setting [3]).
Regarding `CC[C@H](C)[C@H](NC(=O)C(CCC(=O)O)c1ccccc1)C(=O)NCC(=O)N1c2ccccc2C[C@H]1C(=O)NCc1nn[nH]n1` (single isomer, unassigned) [Example A54-2], the IC50 at human Granzyme B (hGzmB) is less than 100 nM. In series [1], the “Solubility … uM” value is more than 750 uM and the “Solubility … ug/mL” value is recorded as more than 454 ug/mL.
Consider `O=C(Cc1ccccc1)N[C@H](C(=O)NCC(=O)N1c2ccccc2C[C@H]1C(=O)NCc1nn[nH]n1)C1CCCC1` [Example A12, (2S)-1-{2-[(2S)-2-Cyclopentyl-2-(2-Phenylacetamido)Acetamido]Acetyl}-N-(2H-1,2,3,4-Tetrazol-5-Ylmethyl)-2,3-Dihydro-1H-Indole-2-Carboxamide], for which the half-inhibitory concentration (IC50) on human Granzyme B (hGzmB) lay in the range of 100 to 1000 nM. Moreover, the values for the solubility at 24 h in series [1] (setting [2]) and in series [1] (setting [3]) were 594 µM and 323 µg/mL, respectively.
Turning to `CC[C@H](C)[C@H](NC(=O)C(C)CC(=O)O)C(=O)NCC(=O)N1c2ccccc2C[C@H]1C(=O)NCc1nn[nH]n1` (single isomer, unassigned) [Example A30-2], the IC50 at human Granzyme B (hGzmB) was less than 100 nM. Also, in series [1], the “Solubility … uM” value is listed as more than 750 uM and the “Solubility … ug/mL” value is more than 396 ug/mL.
Turning to `CC[C@H](C)[C@H](NC(=O)C1CCCCC1C(=O)O)C(=O)NCC(=O)N1c2ccccc2C[C@H]1C(=O)NCc1nn[nH]n1` (single isomer, unassigned) [Example A20-1], the IC50 on human Granzyme B (hGzmB) is less than 100 nM. In addition, the solubility at 24 h was found to be 535 µM in series [1] (setting [2]) and 358 µg/mL in series [1] (setting [3]).
As for `CC[C@H](C)[C@H](NC(=O)C1CCCCC1C(=O)O)C(=O)NCC(=O)N1c2ccccc2C[C@H]1C(=O)NCc1nn[nH]n1` (single isomer, unassigned) [Example A20-2], the IC50 at human Granzyme B (hGzmB) is less than 100 nM. In series [1], the “Solubility … uM” value came out at 641 uM and the “Solubility … ug/mL” value came out at 429 ug/mL.
Take `O=C(O)CCC(=O)N[C@H](C(=O)NCC(=O)N1c2ccccc2C[C@H]1C(=O)NCc1nn[nH]n1)C1CCCC1` [Example A45, 3-{[(S)-Cyclopentyl({2-Oxo-2-[(2S)-2-[(2H-1,2,3,4-Tetrazol-5-Ylmethyl)Carbamoyl]-2,3-Dihydro-1H-Indol-1-Yl]Ethyl}Carbamoyl)Methyl]Carbamoyl}Propanoic Acid]: on human Granzyme B (hGzmB), the IC50 is less than 100 nM. In addition, the values for the solubility at 24 h in series [1] (setting [2]) and in series [1] (setting [3]) were 682 µM and 359 µg/mL, respectively.
Consider `CC[C@H](C)[C@H](NC(=O)C1CCCCC1C(=O)O)C(=O)NCC(=O)N1c2ccccc2C[C@H]1C(=O)NCc1nn[nH]n1` (single isomer, unassigned) [Example A23-1], for which the IC50 at human Granzyme B (hGzmB) is less than 100 nM. In series [1], the “Solubility … uM” value was more than 750 uM and the “Solubility … ug/mL” value was more than 426 ug/mL.
Regarding `CC[C@H](C)[C@H](NC(=O)C1CCCC1C(=O)O)C(=O)NCC(=O)N1c2ccccc2C[C@H]1C(=O)NCc1nn[nH]n1` (single isomer, unassigned) [Example A22-1], the IC50 at human Granzyme B (hGzmB) is less than 100 nM. The solubility at 24 h in series [1] (setting [2]) was more than 750 µM; in series [1] (setting [3]), more than 416 µg/mL.
